Measurements: patent US20250332173A1, “COMPOUNDS AND METHODS FOR MODULATING NUCLEIC ACID SPLICING” (REMIX THERAPEUTICS INC., priority 2021, published 2025)

What was measured:
Target C [1] = assay: RT-qPCR splicing assay panel, Target C canonical junction (CJ) mRNA; assay type: cell-based, human; conditions: Homo sapiens
Summary of the method: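 Cells are plated (A673 allowed 24 h to adhere), dosed with an 11-point 3-fold series topping at 10 uM final, and incubated 24 h at 37 °C. Lysis is followed by cDNA synthesis and qPCR of the CJ transcript, normalized to a housekeeping gene.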

Target C [2] = assay: HiBiT protein abundance assay, Target C HiBiT K562 cell line; assay type: cell-based; conditions: Homo sapiens; HiBiT lytic detection, modified K562 cells, 24 hours, top dose 10 μM; read-out: Effect on protein abundance, Target C (IC50)
Description: • Promega Nano-Glo HiBiT Lytic Detection System (cat #N3030) • Corning 384-well TC-treated microplates (cat #3570) • Synthego Engineered Cells Knock-In Clones
Cells were maintained in IMDM with 10% FBS. Before the assay, cells were diluted with […] growth media (IMDM+[…] media) and were seeded in a 384-well plate at a density of 10,000 cells/well (for each cell line listed in Table 5). Each compound was prepared as a 10-point 3-fold serial dilution in DMSO with the top dose at a final concentration of 10 μM in the well. Unmodified K562 cells were added at the previously specified density with DMSO to serve as an assay baseline and positive control (PC) and DMSO only with the respective modified cell lines was added to the negative control (NC) columns. Final DMSO concentration was kept at or below 0.25%. Treated cell plates were placed in an incubator at 37° C. with […] for 24 hours. After 24 hours, 25 μL of Complete HiBit Lytic reagent was added to each well at room temperature (e.g. one plate requiring 10 mL Lytic Buffer, 100 μL LgBiT Protein, 200 μL Lytic Substrate), shaken for 5 minutes at 600 RPM, then left to sit for 10 minutes for signal to stabilize before reading on a Spark Cyto plate reader (Tecan) with a 500 ms measurement time.
To determine compound effects on protein abundance of each target in Table 5, the percent response for each respective cell line was calculated at each compound concentration as follows:
For the normalized response at each concentration, a four-parameter logistical regression was fit to the data and the response was interpolated at the […] to determine a concentration for protein abundance at […] the untreated control.

[3] = canonical junction qPCR panel, Table 5, read-out: Target C (decrease in CJ mRNA levels, IC50)
[4] = Table 5 panel, canonical junction qPCR, compound concentration having 50% response in CJ decrease, read-out: Target C IC50 (decrease in CJ mRNA levels)

Structure (SMILES)	IC50 (Target C [1]; [3]) [nM]	IC50 (Target C [2]) [nM]	IC50 (Target C [1]; [4]) [nM]
Cc1cn2cc(-c3ncc4c(=O)n(C5CCNCC5)ccc4n3)c(O)c(C)c2n1 [Compound 1225]	–	–	100 to 1000
Cc1cn2cc(-c3cc(F)c4c(=O)n([C@@H]5CNC[C@H]5F)ccc4c3)cc(F)c2n1 [Compound 1456]	> 10000	–	–
Cc1cc(-c2cc3ccn(C4CCN(CCO)CC4)c(=O)c3cn2)cc2cn(C)nc12 [Compound 1210, 6-(2.7-dimethyl-2H-indazol-5-yl)-2-(1-(2-hydroxyethyl)piperidin-4-yl)-2,7-naphthyridin-1(2H)-one]	–	–	> 10000
Cc1cn2nc(-c3ccc4c(=O)n(C5CCNCC5)ncc4c3)cc(C)c2n1 [Compound 186]	–	–	100 to 1000
Cc1cn2cc(-c3ccc4c(=O)n(C5CCNC5)ccc4n3)c(O)c(C)c2n1 (stereo not drawn) [Compound 1302]	> 10000	–	–
COc1c(-c2ccc3c(=O)n(C4CCNCC4)ccc3n2)cc2cn(C)nc2c1C [Compound 1243]	> 10000	–	–
Cc1c(O)c(-c2ncc3c(=O)n([C@@H]4C[C@@H](C)N[C@@H](C)C4)ccc3n2)cc2cn(C)nc12 [Compound 1453, 6-[(2S,6R)-2,6-dimethyl-4-piperidyl]-2-(6-hydroxy-2,7-dimethyl-indazol-5-yl)pyrido[4,3-d]pyrimidin-5-one]	> 10000	–	–
Cc1c(O)c(-c2ncc3c(=O)n(C4CCNCC4)cc(C)c3n2)cc2cn(C)nc12 [Compound 1191]	–	–	100 to 1000
Cc1cn2cc(-c3ncc4c(=O)n(C5CCNCC5)ccc4n3)cc(C#N)c2n1 [Compound 1301]	1000 to 10000	–	–
Cc1c(O)c(-c2ncc3c(=O)n(C4CCNC4)ccc3n2)cc2cn(C)nc12 (stereo in doubt) [Compound 1439, (6R)-2-(6-hydroxy-2,7-dimethyl-indazol-5-yl)-6-pyrrolidin-3-yl-pyrido[4,3-d]pyrimidin-5-one]	> 10000	–	–
Cn1cc2ccc(-n3cnc4cc(NC5CCNCC5)ccc4c3=O)cc2n1 [Compound 204]	–	–	> 10000
CN1CCC(n2ncc3nc(-c4cc5cn(C)nc5cc4O)ccc3c2=O)CC1 [Compound 1307]	1000 to 10000	1000 to 10000	–
COc1c(-c2cc3ccn(C4CCNCC4)c(=O)c3cn2)cc2cn(C)nc2c1F [Compound 1219]	–	–	> 10000
Cc1c(O)c(-c2ccc3c(=O)n(C4CC(C)NC(C)C4)ccc3n2)cc2cn(C)nc12 (stereo not drawn) [Compound 1447, 6-(2,6-dimethyl-4-piperidyl)-2-(6-hydroxy-2,7-dimethyl-indazol-5-yl)-1,6-naphthyridin-5-one]	1000 to 10000	–	–
Cc1cn2cc(-c3cc4ccn(C5CCNCC5)c(=O)c4cn3)cc(F)c2n1 [Compound 1196]	–	–	100 to 1000
Cc1c(O)c(-c2ncc3c(=O)n([C@H]4CCNC(C)(C)C4)ccc3n2)cc2cn(C)nc12 [Compound 1436]	1000 to 10000	–	–
Cc1c(O)c(-c2ncc3c(=O)n([C@H]4C[C@H](N)C4)ccc3n2)cc2cn(C)nc12 [Compound 1432, 6-((1r,3r)-3-aminocyclobutyl)-2-(6-hydroxy-2,7-dimethyl-2H-indazol-5-yl)pyrido[4,3-d]pyrimidin-5(6H)-one]	1000 to 10000	–	–

Continued, values first:

IC50 (Target C [1]; [3]) [nM]	IC50 (Target C [2]) [nM]	IC50 (Target C [1]; [4]) [nM]	Structure (SMILES)
100 to 1000	100 to 1000	–	Cn1cc2cc(-c3ccc4c(=O)n(C5CCNC6(CC6)C5)ncc4n3)c(O)cc2n1 (stereo not drawn) [Compound 1306]
100 to 1000	100 to 1000	–	CCN1CCC(n2ncc3nc(-c4cc(C)c5nc(C)cn5n4)ccc3c2=O)CC1 [Compound 1308]
1000 to 10000	–	–	Cc1c(O)c(-c2ncc3c(=O)n([C@H]4C[C@@H](N)C4)ccc3n2)cc2cn(C)nc12 [Compound 1431, 6-((1s,3s)-3-aminocyclobutyl)-2-(6-hydroxy-2,7-dimethyl-2H-indazol-5-yl)pyrido[4,3-d]pyrimidin-5(6H)-one]
1000 to 10000	1000 to 10000	–	CCN1CCC(n2ncc3nc(-c4cc5cn(C)nc5cc4O)ccc3c2=O)CC1 [Compound 1310]
100 to 1000	–	–	Cc1c(O)c(-c2ncc3c(=O)n([C@H]4CCN[C@@H](C)C4)ccc3n2)cc2cn(C)nc12 [Compound 1441, 2-(6-hydroxy-2,7-dimethyl-indazol-5-yl)-6-(2-methyl-4-piperidyl)pyrido[4,3-d]pyrimidin-5-one]
1000 to 10000	–	–	Cc1c(O)c(-c2ncc3c(=O)n(C4CCNC(C)(C)C4)ccc3n2)cc2cn(C)nc12 (stereo not drawn) [Compound 1442]
1000 to 10000	–	–	Cc1cn2nc(-c3ccc4c(=O)n([C@H]5CCNC5)ccc4n3)cc(C)c2n1 [Compound 1437, 2-(2,8-dimethylimidazo[1,2-b]pyridazin-6-yl)-6-[(3S)-pyrrolidin-3-yl]-1,6-aphthyridin-5-one]
100 to 1000	–	–	Cn1cc2nc(-c3ccc4c(=O)n(C5CCNCC5)ccc4n3)c(O)cc2n1 [Compound 1296]
1000 to 10000	–	–	Cc1c(O)c(-c2ncc3c(=O)n([C@@H]4CC5CC4CN5)ccc3n2)cc2cn(C)nc12 (stereo in doubt) [Compound 1443, 6-[(1R,4R,5R)-2-azabicyclo[2.2.1]heptan-5-yl]-2-(6-hydroxy-2,7-dimethyl-indazol-5-yl)pyrido[4,3-d]pyrimidin-5-one]
100 to 1000	100 to 1000	–	Cc1cn2nc(-c3ccc4c(=O)n(C5CCN(CCF)CC5)ncc4n3)cc(C)c2n1 [Compound 1309]
100 to 1000	–	–	Cc1c(O)c(-c2ncc3c(=O)n(N4CCNCC4)ccc3n2)cc2cn(C)nc12 [Compound 1303]
100 to 1000	100 to 1000	–	Cc1cn2nc(-c3ccc4c(=O)n(C5CCN(C)CC5)ncc4n3)cc(C)c2n1 [Compound 1311]
< 100	–	–	Cc1cn(C2CCNCC2)c(=O)c2ccc(-c3cc4cn(C)nc4c(F)c3O)nc12 [Compound 1285]
100 to 1000	< 100	–	Cc1cn2nc(-c3ccc4c(=O)n(C5CCNCC5)ncc4n3)cc(C)c2n1 [Compound 1247]
100 to 1000	–	–	Cn1cc2cc(-c3ccc4c(=O)n([C@@H]5CCNC5)ccc4n3)c(O)c(F)c2n1 [Compound 1452, 2-(7-fluoro-6-hydroxy-2-methyl-indazol-5-yl)-6-[(3R)-pyrrolidin-3-yl]-1,6-naphthyridin-5-one]
